Measured values as given in PMC2746095 (Biochemistry, 2009).
Numbering of substitutions follows the chain as printed.

Tests used:
[1] = target: T1, R. etli pyruvate carboxylase (RePC) (Rhizobium etli, UniProt Q2K340); assay: bicarbonate-dependent ATPase, coupled Pi assay, fit to substrate inhibition; assay type: biochemical; settings: 0-20 mM pyruvate, text prints 10.2 ± 0.1 mM, 100 mM Tricine pH 7.5, 25 °C, 10 mM HCO3-, 2.5 mM MgATP, 2.5 mM MgCl2, 0.25 mM acetyl-CoA
T1 sequence (Q2K340 1-1154): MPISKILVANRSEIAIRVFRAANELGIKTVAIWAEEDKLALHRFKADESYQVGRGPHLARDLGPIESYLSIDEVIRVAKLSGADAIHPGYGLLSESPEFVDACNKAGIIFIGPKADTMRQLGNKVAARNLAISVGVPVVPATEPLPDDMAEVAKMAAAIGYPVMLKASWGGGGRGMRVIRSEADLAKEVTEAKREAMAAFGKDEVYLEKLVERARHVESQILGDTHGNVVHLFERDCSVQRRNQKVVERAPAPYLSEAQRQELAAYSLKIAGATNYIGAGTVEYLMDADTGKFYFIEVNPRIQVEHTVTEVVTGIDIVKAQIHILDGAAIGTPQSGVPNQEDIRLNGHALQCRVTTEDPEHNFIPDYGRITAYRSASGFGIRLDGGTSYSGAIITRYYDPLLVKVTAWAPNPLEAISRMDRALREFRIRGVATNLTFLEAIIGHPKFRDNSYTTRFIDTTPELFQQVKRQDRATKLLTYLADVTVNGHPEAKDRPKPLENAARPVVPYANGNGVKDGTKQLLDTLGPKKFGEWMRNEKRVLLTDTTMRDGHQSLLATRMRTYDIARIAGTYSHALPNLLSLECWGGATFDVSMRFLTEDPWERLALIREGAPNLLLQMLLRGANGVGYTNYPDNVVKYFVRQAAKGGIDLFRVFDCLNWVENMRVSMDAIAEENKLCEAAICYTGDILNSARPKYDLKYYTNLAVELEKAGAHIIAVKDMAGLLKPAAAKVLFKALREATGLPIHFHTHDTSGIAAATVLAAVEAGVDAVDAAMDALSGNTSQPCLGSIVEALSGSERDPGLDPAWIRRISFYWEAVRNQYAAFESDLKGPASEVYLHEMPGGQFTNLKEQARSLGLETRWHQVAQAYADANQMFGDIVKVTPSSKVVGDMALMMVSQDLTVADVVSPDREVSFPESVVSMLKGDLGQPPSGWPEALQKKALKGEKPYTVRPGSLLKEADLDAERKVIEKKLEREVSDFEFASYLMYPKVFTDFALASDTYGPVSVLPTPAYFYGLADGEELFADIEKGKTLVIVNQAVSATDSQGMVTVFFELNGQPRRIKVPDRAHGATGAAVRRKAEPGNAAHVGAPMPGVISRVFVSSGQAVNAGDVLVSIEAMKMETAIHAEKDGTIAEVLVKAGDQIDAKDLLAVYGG

[2] = target: T2, R. etli pyruvate carboxylase (RePC) (Rhizobium etli, UniProt Q2K340, T882A); assay: bicarbonate-dependent ATPase, coupled Pi assay, partial inhibition fit; assay type: biochemical
T2 sequence (Q2K340 1-1154 T882A): T1 sequence (Q2K340 1-1154) with T882A

Row | Compound | Ki [1] [mM] | Ki [2] [mM]
1 | CC(=O)C(=O)O [pyruvate] | 10 ± 1 | 0.8 ± 0.1
2 | NC(=O)C(=O)O [oxamate] |  | 1 ± 0.2
